According to patent US20250276955A1, “CORONAVIRUS MAIN PROTEASE INHIBITORS AND METHODS USING SAME” (Baylor College of Medicine, priority 2021, published 2025):
≈ marks a conversion by molar mass, not a printed value. Entries after “also recorded” stand apart in the source; their conditions may differ. Where two headings read alike, the source gives them in different places.

Key:
[1] = Apparent solubility in PBS buffer; settings: for solubility: PBS buffer with 2% DMSO, aqueous buffer, kinetic from dmso stock
[2] = biological target: T1, Human Cathepsin B (Homo sapiens, UniProt P07858); assay: Cathepsin B assay; format: biochemical
T1 construct: purchased BPS Bioscience 79590
Experimental: (§1) A kit from BPS Bioscience (#79590) was used with adjustments to the manufacturer's protocol as follows: The activated enzyme was diluted 250-fold just before use, and the reaction was run at RT in black 96 half-area plates in a total reaction volume of 50 uL containing 0.01% Tween-20. Instead of measuring endpoints at 60 min the increase in fluorescence (Ex 360 nm, Em 460 nm) per second (RFU/s) was obtained from linear progress curves over 10 min. Fractional activities were calculated from reactions with no inhibitors. E-64 was used as a positive control.

[3] = biological target: T2, HOVPro-Gi.1 (Norovirus, UniProt Q83883); assay: Thermal shift, HOVPro-Gi.1; format: binding
T2 construct: HOVPro-Gi.1
T2 sequence (Q83883 1101-1281): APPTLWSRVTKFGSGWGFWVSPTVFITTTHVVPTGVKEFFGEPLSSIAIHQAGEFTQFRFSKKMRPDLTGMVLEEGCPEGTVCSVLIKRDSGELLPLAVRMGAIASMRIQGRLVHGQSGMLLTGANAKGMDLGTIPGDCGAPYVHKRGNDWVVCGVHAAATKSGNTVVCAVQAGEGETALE

[4] = biological target: T3, matrix metallopeptidase 1 (MMP-1) (Homo sapiens, UniProt P03956); assay: MMP-1 assay; format: biochemical
T3 construct: purchased Biovision K794-100
T3 sequence (P03956 100-469): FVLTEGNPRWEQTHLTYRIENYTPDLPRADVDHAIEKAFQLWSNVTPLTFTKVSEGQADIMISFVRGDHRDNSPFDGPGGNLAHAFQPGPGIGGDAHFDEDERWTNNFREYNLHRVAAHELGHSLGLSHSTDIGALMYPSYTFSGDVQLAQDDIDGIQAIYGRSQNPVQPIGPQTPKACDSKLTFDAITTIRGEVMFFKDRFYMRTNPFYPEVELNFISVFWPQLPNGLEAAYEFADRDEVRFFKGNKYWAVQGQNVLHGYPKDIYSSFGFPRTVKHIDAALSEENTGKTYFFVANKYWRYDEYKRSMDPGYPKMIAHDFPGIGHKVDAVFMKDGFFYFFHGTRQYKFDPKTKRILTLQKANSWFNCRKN
Experimental: A kit from Biovision (#K794-100) was used with adjustments to the manufacturer's protocol as follows: The enzyme was reconstituted according to protocol and then diluted 5-fold with assay buffer just before use. The unknown fluorogenic substrate was further diluted 10-fold with the provided assay buffer. The reaction was run at 37 C in black 96 half-area plates in a total reaction volume of 50 μL containing 0.01% Tween-20. The increase in fluorescence (Ex 490 nm, Em 520 nm) per second (RFU/s) was obtained from linear progress curves over 10 min. Fractional activities were calculated from reactions with no inhibitors. GM 6001 was used as a positive control.

[5] = test system: HOVPro-Gii.4; assay: Thermal shift, HOVPro-Gii.4; format: binding
[6] = biological target: SARS-CoV-2 main protease (M^pro) (Severe acute respiratory syndrome coronavirus 2, UniProt P0DTD1); assay: Protein thermal shift stability assay (SYPRO Orange); format: binding
[7] = biological target: T4, human thrombin (Homo sapiens, UniProt P00734); assay: Thrombin fluorescence assay; format: biochemical
T4 construct: purchased Sigma-Aldrich MAK243

[8] = biological target: T5, renin (Homo sapiens, UniProt P00797); assay: Renin assay; format: biochemical
T5 construct: purchased BPS Bioscience 80211
T5 sequence (P00797 67-406): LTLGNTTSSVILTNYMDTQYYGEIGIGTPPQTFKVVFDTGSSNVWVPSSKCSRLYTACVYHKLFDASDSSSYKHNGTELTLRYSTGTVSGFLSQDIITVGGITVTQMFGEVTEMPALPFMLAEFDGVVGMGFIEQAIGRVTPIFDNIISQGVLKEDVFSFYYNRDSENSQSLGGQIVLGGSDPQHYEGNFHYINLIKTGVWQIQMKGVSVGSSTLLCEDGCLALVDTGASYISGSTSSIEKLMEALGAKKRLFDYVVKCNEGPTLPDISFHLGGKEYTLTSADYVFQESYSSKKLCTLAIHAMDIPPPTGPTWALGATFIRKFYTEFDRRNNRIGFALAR
Experimental: as §1, with “(#80211)” for “(#79590)”, “The” for “The activated enzyme was diluted 250-fold just before use, and the”, “30” for “60”, “490” for “360”, “520” for “460”, “Aliskiren” for “E-64”

[9] = Pharmacokinetics in mice; format: in vivo; settings: 50 mg/kg intraperitoneal, plasma
Experimental: The whole blood samples were span at 2,000 rcf for 5 min for the separation of plasma. […] The concentration of these compounds in plasma were quantified using a calibration curve.

[10] = Metabolic stability in human liver microsomes; format: in vitro ADME; settings: human, liver microsomes; for half-life at 2 μM: Table 4, read-out: HLM t1/2
Experimental: (§2) The samples were collected at specific time-points 0, 30, and 60 min in duplicate. The reactions were terminated by adding an equivalent volume of ice-cold methanol and vortexed. […] Three μL of the supernatant was analyzed by UHPLC-Q Exactive Orbitrap MS (Thermo Fisher Scientific, USA) equipped with 50 mm×4.6 mm column (XDB C-18, Agilent Technologies, USA). The column temperature was maintained at 40° C. The flow rate was at 0.3 mL/min with a 30% mobile phase (acetonitrile containing 0.1% formic acid). Q Exactive MS was operated in positive mode with electrospray ionization. Ultra-pure nitrogen was applied as the sheath (45 arbitrary unit), auxiliary (10 arbitrary unit), sweep (1.0 arbitrary unit) and the collision gas. […] MS data were acquired from 80 to 1,200 Da in profile mode.

[11] = 293T relative cell viability; settings: human, 293T cells
[12] = biological target: SARS-COV-2 M^pro (authentic N- and C-termini) (Severe acute respiratory syndrome coronavirus 2, UniProt P0DTD1); assay: biochemical; format: biochemical
[13] = biological target: SARS-COV-2 M^pro-His6 (Severe acute respiratory syndrome coronavirus 2, UniProt P0DTD1); assay: biochemical; format: biochemical
[14] = Metabolic stability in mouse liver microsomes; format: in vitro ADME; settings: mouse, liver microsomes; for half-life at 2 μM: Table 4, read-out: MLM t1/2
Experimental: as §2

[15] = test system: HepG2 cells; assay: HepG2 cytotoxicity assay (XTT); settings: Homo sapiens, HepG2, 24 h, read-out: HepG2 cell viability IC50

CCCC(NC(=O)c1cccc2nc(-c3cncc4ccccc34)n([C@H]3C[C@H](C(=O)NC)C3)c12)c1ccc(C(F)(F)F)cc1 (some centres unmarked) [CDD-1733]
Measured apparent solubility in PBS buffer (2% DMSO) ([1]; PBS buffer, 2% DMSO): 30.3 µM
Human Cathepsin B, Fractional Remaining Activity [2]: 0.91
cathepsin B inhibition (in words) [2]: negative
ΔTm of HOVPro-Gi.1 at 50 μM compound conc. ([3]; 50 µM): −0.74 °C
MMP-1 inhibition (in words) [4]: negative
ΔTm of HOVPro-Gii.4 at 50 μM compound conc. ([5]; 50 µM): −1.2 °C
ΔTm of Mpro at 50 μM compound conc. ([6]; 50 μM compound, […], 50 µM): 7.75 °C
Thrombin inhibition ([7]; fluorescence assay): None
thrombin inhibition (in words) ([7]; fluorescence assay): No inhibition; also recorded: negative
renin inhibition (in words) [8]: negative
AUC0-t [9]: 7.80 ± 3.22 µmol·h/L
CL/F [9]: 7.73 ± 2.75 mg/(hr · μmol/L)/kg
Tmax [9]: 60 min

COc1cc(-c2cccc3[nH]ncc23)cc(C=O)c1OCC(=O)N1CCC(Oc2cccc(C(=O)N(C)C)c2)C1 (centres unmarked) [CDD-1714, 3-((1-(2-(2-formyl-4-(1H-indazol-4-yl)-6-methoxyphenoxy)acetyl)pyrrolidin-3-yl)oxy)-N,N-dimethylbenzamide]
solubility [1]: 54.4 µM (≈ 29.5 µg/mL)
Human Cathepsin B, Fractional Remaining Activity [2]: 0.92
ΔTm of HOVPro-Gi.1 at 50 μM compound conc. [3]: −0.11 °C
microsomal CLint at 2 μM [10]: 132 µL/min/mg
half-life at 2 μM [10]: 10.5 min
cytotoxicity at 3 day, 10 μM [11]: 21%
ΔTm of HOVPro-Gii.4 at 50 μM compound conc. [5]: −0.41 °C
Ki ([12]; Morrison equation, read-out: apparent Ki against M^pro): 24.4 nM
stabilization of M^pro in thermal shift assay (in words) [6]: stabilized; also recorded: concentration-dependent stabilization
ΔTm of Mpro at 50 μM compound conc. [6]: 2.93 °C
Thrombin inhibition [7]: None
thrombin inhibition (in words) [7]: No inhibition
Ki ([13]; 25 nM enzyme, 15 μM fluorescent peptide, Morrison equation, Inactive = less than 50% inhibition at 25 μM compound, read-out: M^pro-His Ki): 20.2 ± 3 nM
microsomal CLint at 2 μM [14]: 130 µL/min/mg
half-life at 2 μM [14]: 10.7 min

CNC(=O)CCCn1c(-c2cncc3ccccc23)nc2cccc(C(=O)N[C@@H](C)c3ccc4ccccc4c3)c21 [CDD-1845]
cathepsin B inhibition (in words) [2]: negative
MMP-1 inhibition (in words) [4]: negative
thrombin inhibition (in words) [7]: negative
renin inhibition (in words) [8]: negative
AUC0-t [9]: 14.87 ± 7.79 µmol·h/L
AUC0-∞ [9]: 14.93 ± 7.85 µmol·h/L
CL/F [9]: 4.02 ± 1.98 mg/(hr · μmol/L)/kg
Cmax [9]: 8.93 ± 4.55 µM
MRT0-t [9]: 1.22 ± 0.03 h
MRT0-∞ [9]: 1.25 ± 0.02 h
T1/2 [9]: 1.14 ± 0.32 h
Tmax [9]: 19.8 ± 8.4 min

CNCc1cc(-c2cccc3[nH]ncc23)cc(OC)c1OCC(=O)N(C)C [CDD-1777]
solubility [1]: 195 µM (≈ 71.7 µg/mL)
cytotoxicity at 3 day, 10 μM [11]: 4%
Ki,app [12]: Inactive
M^pro Ki [12]: Inactive
ΔTm of Mpro at 50 μM compound conc. ([6]; 50 μM compound, […]): 1.00 °C
M^pro-His Ki [13]: Inactive

CCC[C@H](NC(=O)c1cccc2nc(-c3cncc4ccccc34)n([C@H]3C[C@H](C(=O)NC)C3)c12)c1ccc(OC(F)F)cc1 [CDD-1780]
solubility [1]: 41.8 µM (≈ 25 µg/mL)
Human Cathepsin B, Fractional Remaining Activity [2]: 0.95
ΔTm of HOVPro-Gi.1 at 50 μM compound conc. [3]: −0.18 °C
microsomal CLint at 2 μM [10]: 76.1 µL/min/mg
half-life at 2 μM [10]: 18 min
cytotoxicity at 3 day, 10 μM [11]: 6%
ΔTm of HOVPro-Gii.4 at 50 μM compound conc. [5]: −1.23 °C
Ki ([12]; Table 3, column b (footnote not given), read-out: Kiapp (nM)^b): 15.7 ± 1.6 nM
ΔTm of Mpro at 50 μM compound conc. ([6]; 50 μM compound, […]): 9.19 °C
Thrombin inhibition ([7]; fluorescence assay): None
Ki ([13]; Table 3, column a (footnote not given), read-out: Kiapp (nM)^a): 13.7 ± 1.5 nM
microsomal CLint at 2 μM [14]: 39.5 µL/min/mg
half-life at 2 μM [14]: 35.1 min

CNC(=O)[C@H]1C[C@H](n2c(-c3cncc4ccccc34)nc3cccc(C(=O)NC(C)c4ccc5ccccc5c4)c32)C1 (some centres unmarked) [CDD-1819]
cathepsin B inhibition (in words) [2]: negative
MMP-1 inhibition (in words) [4]: negative
thrombin inhibition (in words) ([7]; fluorescence assay): negative
renin inhibition (in words) [8]: negative
CL/F [9]: 7.26 ± 1.81 mg/(hr · μmol/L)/kg
MRT last ([9]; mouse, ip, read-out: MRT0-t): 1.31 ± 0.12 h
MRT inf ([9]; mouse, ip, read-out: MRT0-∞): 1.42 ± 0.16 h
Tmax ([9]; mouse, ip, read-out: Tmax): 19.8 ± 8.4 min
IC50 [15]: > 100 µM
